We go through 6 molecules from patent US10175228B2, “Method of using transmembrane channel-like protein 6 (TMC6) protein to identify substances affecting salty taste” (priority 2016, dated 2019).

Where a name gives a salt, the structure may show the parent alone. Where only a bound is given, the exact number is not on record here.

The target of one test is T1, mouse TMC6 protein (Mus musculus, UniProt Q7TN60, A788T).
T1 construct: expressed in transfected cells; host or cells: CHO-K1
T1 sequence (Q7TN60 1-810 A788T): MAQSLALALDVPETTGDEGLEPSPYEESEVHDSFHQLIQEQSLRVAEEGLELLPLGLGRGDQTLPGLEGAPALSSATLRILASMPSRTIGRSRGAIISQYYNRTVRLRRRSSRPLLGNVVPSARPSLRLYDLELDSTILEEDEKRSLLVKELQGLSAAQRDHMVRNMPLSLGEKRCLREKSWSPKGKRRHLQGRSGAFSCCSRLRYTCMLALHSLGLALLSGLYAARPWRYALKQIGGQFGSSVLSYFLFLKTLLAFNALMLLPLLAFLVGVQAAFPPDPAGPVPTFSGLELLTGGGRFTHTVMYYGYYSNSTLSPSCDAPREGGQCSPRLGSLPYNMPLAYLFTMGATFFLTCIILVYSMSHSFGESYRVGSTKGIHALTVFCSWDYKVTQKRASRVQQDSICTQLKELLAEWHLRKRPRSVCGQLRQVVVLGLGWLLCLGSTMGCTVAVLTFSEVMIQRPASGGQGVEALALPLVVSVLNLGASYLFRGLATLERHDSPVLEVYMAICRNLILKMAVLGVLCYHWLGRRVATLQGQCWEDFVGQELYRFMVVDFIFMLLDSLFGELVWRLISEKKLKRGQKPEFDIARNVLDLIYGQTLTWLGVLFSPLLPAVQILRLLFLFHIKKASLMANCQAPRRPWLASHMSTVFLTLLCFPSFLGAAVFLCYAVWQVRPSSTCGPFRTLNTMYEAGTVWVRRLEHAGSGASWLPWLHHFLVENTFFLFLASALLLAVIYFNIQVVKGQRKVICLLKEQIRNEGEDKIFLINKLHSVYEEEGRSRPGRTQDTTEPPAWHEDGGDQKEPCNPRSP
The test is described as follows: Calcium imaging (YC2.60 FRET) of CHO-K1 cells expressing the mouse TMC6 gene. Format: cell-based. Particulars: one typical TMC6-expressing cell, stimulation with ATP stimulation solution (50 μM ATP), FIG. 13C. Here is the method: CHO-K1 cells were transfected with TMC6-pcDNA3.1 or pcDNA3.1 in combination with YC2.60-pcDNA, to prepare TMC6-expressing cells (cells expressing the mouse TMC6 gene and the YC2.60 gene) and control cells (cells expressing the YC2.60 gene). The prepared cells were stimulated, and activation of the cells was measured. The procedure was as follows.
That is, first, CHO-K1 cells (ATCC) were inoculated into a culture dish having a diameter of 60 mm while adjusting the number of the cells to obtain 60% confluence, and cultured for 8 hr. As the medium, 5 mL of Ham's F-12K (Kaighn's) (Life Technologies) containing 10% fetal bovine serum (Life Technologies) was used. A 15 μL aliquot of FuGENE 6 (Promega) was added to 235 μL of Opti-MEM (Thermo Fisher Scientific), and incubated for 5 min at a room temperature. Then, 0.625 μg of TMC6-pcDNA3.1 and 2.5 μg of YC2.60-pcDNA were further added thereto, and incubated for 15 min at a room temperature. Then, the whole of the resultant mixture was dropped into the culture broth of the CHO-K1 cells, and the culture broth was mildly stirred. Then, the cells were further cultured for 18 hr under a condition of 5% CO2 at 37° C., to obtain the TMC6-expressing cells. Similarly, the control cells were obtained through transfection using pcDNA3.1 instead of TMC6-pcDNA3.1.
After the cultivation, the culture broth was removed. A low-concentration NaCl solution (27 mM NaCl, 1 mM KCl, 0.4 mM CaCl2, 0.2 mM MgCl2, 2 mM Hepes (pH7.3), 1 mM NaHCO3, 2 mM glucose, 2 mM sodium pyruvate, and 112 mM NMDG-Cl) was added to the culture dish, incubation was carried out statically for 5 min, and then, stimulation and observation of cells were started. First, the low-concentration NaCl solution was perfused for approximately 80 sec, to provide a ground state. Then, a high-concentration NaCl solution (135 mM NaCl, 1 mM KCl, 0.4 mM CaCl2, 0.2 mM MgCl2, 2 mM Hepes (pH7.3), 1 mM NaHCO3, 2 mM glucose, and 2 mM sodium pyruvate) was perfused instead of the low-concentration NaCl solution for approximately 60 sec, to stimulate the cells. […]
For `Nc1ncnc2c1ncn2[C@@H]1O[C@H](COP(=O)(O)OP(=O)(O)OP(=O)(O)O)[C@@H](O)[C@H]1O` [ATP], the “relative FRET value (YFP/CFP) of the ROI-1 cell” value is given as at least 1.3.

The next test deals with wild-type C57BL/6J mouse and homo knockout mouse of the TMC6 gene. As to the kind of experiment: Palatability tests for taste substances other than NaCl, two-bottle method. The format is in vivo. The conditions noted are these: 48 hr, taste substance aqueous solution versus control aqueous solution. As to the method:
<Taste Substance Aqueous Solutions>
MSG: 100 mM monosodium glutamate
MSG+IMP: 100 mM monosodium glutamate+1 mM inosinic acid
Citric Acid: 10 mM citric acid
Quinine HCl: 0.3 mM quinine hydrochloride
Fructose: 300 mM fructose
In the case of `C=C[C@H]1C[N@@]2CC[C@H]1C[C@H]2[C@H](O)c1ccnc2ccc(OC)cc12` [Quinine HCl, quinine hydrochloride], the “difference in palatability or repellency between Tmc6 −/− mouse and wild-type mouse” value (“difference” below) is given as “No difference”. Take `N[C@@H](CCC(=O)O)C(=O)[O-].[Na+]` [MSG, monosodium glutamate]: the “difference” value is on record as “No difference”. For the molecule `OC[C@H]1O[C@@](CO)(O[C@H]2O[C@H](CO)[C@@H](O)[C@H](O)[C@H]2O)[C@@H](O)[C@@H]1O` [Sucrose, sucrose], the “difference” value was “No difference”. Still for that read-out and setting: as for `O=C(O)CC(O)(CC(=O)O)C(=O)O` [Citric acid, citric acid], the entry is “No difference”. Same read-out and setting: as for `O=C(CO)[C@@H](O)[C@H](O)[C@H](O)CO` [Fructose, fructose], the entry is “No difference”.
